Experiments:
[1] = tested on: CCI rats, mechanical hypersensitivity; experiment: CCI model of neuropathic pain, mechanical sensitivity (automatized von Frey test); type: in vivo, rat
Method: The CCI model of neuropathic pain allowed the evaluation of the effect RGM8-51 on cold, heat and mechanical sensitivity, as assayed by the acetone test, the Hargreaves test, and the automatized von Frey test, respectively. RGM8-51 was applied either locally (i.pl.; 10 µg) in the affected paw or systemically (intraperitoneally, i.p., 10 and 30 mg/kg) and the effect evaluated before (Baseline) and after CCI surgery. The nocifensive response after administration of RGM8-51 was compared with that of vehicle, while non-operated animals and the uninjured (contralateral) hind paw in CCI animals were used as controls.
Adult male Sprague-Dawley rats (weighing 200–220 g/6–8 weeks old) were used in these experiments. All experimental procedures were conducted according to the animal welfare guidelines of the European Community (European Directive 2010/63/UE) to minimize animal suffering and were approved by Universidad Complutense de Madrid and Comunidad de Madrid ethical committees on animal experimentation (PROEX 207.8/21). […]
For behavioral testing, rats were placed in individual methacrylate boxes with a wire mesh floor, and after a period of 15 min acclimatization, the cold, heat and mechanical sensitivity of the ipsilateral and contralateral paws was determined. Cold sensitivity was assessed with the acetone test. In total, 100 µL acetone were locally applied to the plantar surface of the hind paw and the duration of the subsequent nocifensive response (licking, brushing, and flinching of the paw) was determined during 60 s. Acetone application and assessment were repeated 2 times with a 5 min interval and the sum of the two values was recorded. Heat sensitivity was determined with the Hargreaves test, which uses infrared light as a heat source, with a Hargreaves apparatus (Serie 8, Model 336, IITC Life Science, Woodland Hills, CA USA). The light beam was directed to the plantar surface of the hind paw and the time from the beginning of irradiation to the appearance of first paw withdrawal movement was measured (paw withdrawal latency). […]

[2] = tested on: rats; experiment: Behaviour observed after i.p. injection in the CCI study; type: in vivo, rat; details: i.p. 30 mg/kg
Method: This behavior lasted 3-5 min and could possibly be related to the TRPV1 agonist activity of compound RGM8-51.
Rats were allocated into 2 groups to receive RGM8-51 and vehicle (DMSO 2% i.pl., or 150 µL/kg i.p.) by either the i.pl. (10 µg in 20 µL; n = 5 animals) or i.p. (10 or 30 mg/kg in 150 µL/kg; n = 8 animals) route. Responses to cold/heat/mechanical stimulation were assessed 30 min before and 30 min after RGM8-51 or vehicle injection. Behavioral testing prior to drug administration served to ascertain baseline conditions and the stability of cold, heat and mechanical hypersensitivity after surgery. RGM-8-51 stock was prepared in DMSO (Sigma-Aldrich) and diluted in saline for injections. Data are given as the mean ± standard error of the mean (SEM) of the corresponding number of behavioral measurements/animals used. Statistical analysis was performed by using the paired t-test (GraphPad 8; San Diego, CA, USA).

C[C@@H]1C(=O)N(C[C@H](Cc2ccccc2)N(Cc2ccccc2)Cc2ccccc2)[C@]1(Cc1ccccc1)C(=O)OC(C)(C)C [RGM8-51, 4(S)-Benzyl-3S-methyl-4-(tert-butoxy)carbonyl-1-[(2′S-dibenzylamino-3′-phenyl)prop-1′-yl]-2-oxoazetidine]
mechanical sensitivity in the absence of neuropathy ([1]; baseline, non-operated): could not be observed
mechanical hypersensitivity (paw withdrawal threshold) in CCI rats ([1]; i.p. 10 and 30 mg/kg): dose-dependently reverted paw withdrawal thresholds
mechanical hypersensitivity (paw withdrawal threshold) in CCI rats ([1]; local (i.pl.) 10 µg): effect also being produced
duration of writhing behavior [2]: 3 to 5 min
writhing behavior [2]: writhing behavior was observed in a small number of animals

Source: article PMC8910920 (International Journal of Molecular Sciences, 2022)
